Experimental data published in patent publication US12060355B2, “Compounds for use in the treatment of fascioliasis” (Merck Patent GmbH, priority 2018, dated 2024).

Tested on: human HepG2 cell lines
Format: cell-based
Conditions: human HepG2 cell line

| Structure (SMILES) | Cytotox HepG2 |
| --- | --- |
| Cc1nc2cnc(-c3ccc(F)c(C(F)(F)C(F)(F)F)c3)cn2c1-c1c(F)cc(O)cc1F [Example 53, 3,5-Difluoro-4-[6-(4-fluoro-3-pentafluoroethyl-phenyl)-2-methyl-imidazo[1,2-a]pyrazin-3-yl]-phenol] | 8.8 µM |
| Fc1c(-c2c(C(F)(F)F)nc3cnc(-c4ccnc(C(F)(F)F)c4)cn23)ccc2[nH]ncc12 [Example 88, 3-(4-Fluoro-1H-indazol-5-yl)-2-trifluoromethyl-6-(2-trifluoromethyl-pyridin-4-yl)-imidazo[1,2-a]pyrazine] | 7.0 µM |
| Fc1ccc(-c2cn3c(-c4ccc5[nH]ncc5c4F)c(C(F)(F)F)nc3cn2)cc1CC(F)(F)F [Example 69, 3-(4-Fluoro-1H-indazol-5-yl)-6-[4-fluoro-3-(2,2,2-trifluoro-ethyl)-phenyl]-2-trifluoromethyl-imidazo[1,2-a]pyrazine] | 5.3 µM |
| CCc1nc2cnc(-c3ccc(F)c(C(F)(F)F)c3)cn2c1-c1c(F)cc(O)cc1F [Example 36, 3,5-difluoro-4-[2-ethyl-6-[4-fluoro-3-(trifluoromethyl)phenyl]imidazo[1,2-a]pyrazin-3-yl]phenol] | 8.3 µM |
| CCc1nn2cnc(-c3ccc(F)c(C(F)(F)F)c3)cc2c1-c1c(F)cc(O)cc1F [Example 48, 4-(2-ethyl-5-(4-fluoro-3-(trifluoromethyl)phenyl)pyrazolo[1,5-c]pyrimidin-3-yl)-3,5-difluorophenol] | 9.8 µM |
| CCc1nc2cnc(-c3cccc(C(F)(F)C(F)(F)F)c3)cn2c1-c1c(F)cc(O)cc1F [Example 52, 4-[2-Ethyl-6-(3-pentafluoroethyl-phenyl)-imidazo[1,2-a]pyrazin-3-yl]-3,5-difluoro-phenol] | 8.0 µM |
| CC1(c2nc3cnc(-c4ccc(F)c(C(F)(F)F)c4)cn3c2-c2c(F)cc(O)cc2F)CC1 [Example 33, 3,5-difluoro-4-[2-(1-methyl-cycloprop-1-yl)-6-[4-fluoro-3-(trifluoromethyl)phenyl]imidazo[1,2-a]pyrazin-3-yl]phenol] | 7.9 µM |
| CC(C)c1cc(-c2cn3c(-c4ccc5[nH]ncc5c4Cl)c(C(F)(F)F)nc3cn2)ccc1F [Example 83, 3-(4-Chloro-1H-indazol-5-yl)-6-(4-fluoro-3-isopropyl-phenyl)-2-trifluoromethyl-imidazo[1,2-a]pyrazine] | 6.6 µM |
| CC(C)c1cccc(-c2cn3c(-c4ccc5[nH]ncc5c4F)c(C(F)(F)F)nc3cn2)c1 [Example 66, 3-(4-Fluoro-1H-indazol-5-yl)-6-(3-isopropyl-phenyl)-2-trifluoromethyl-imidazo[1,2-a]pyrazine] | 12.9 µM |
| CCc1nc2cnc(-c3ccc(F)c(C(F)(F)F)c3)cn2c1-c1ccc2[nH]ncc2c1F [Example 37, 4-fluoro-5-{2-ethyl-6-[4-fluoro-3-(trifluoromethyl)phenyl]imidazo[1,2-a]pyrazin-3-yl}-1H-indazole] | 13.1 µM |
| Oc1cc(F)c(-c2c(C3CC3)nc3cnc(-c4ccc(F)c(S(F)(F)(F)(F)F)c4)cn23)c(F)c1 [Example 56, 4-[2-Cyclopropyl-6-(4-fluoro-3-pentafluorosulfanyl-phenyl)-imidazo[1,2-a]pyrazin-3-yl]-3,5-difluoro-phenol] | 10.1 µM |
| Fc1ccc(-c2cn3c(-c4ccc5[nH]ncc5c4F)c(C(F)(F)F)nc3cn2)cc1OC(F)(F)F [Example 71, 3-(4-Fluoro-1H-indazol-5-yl)-6-(4-fluoro-3-trifluoromethoxy-phenyl)-2-trifluoromethyl-imidazo[1,2-a]pyrazine] | 12.2 µM |
| CC(C)c1nc2cnc(-c3ccc(F)c(C(F)(F)F)c3)cn2c1-c1ccc2[nH]ncc2c1F [Example 2, 4-fluoro-5-{6-[4-fluoro-3-(trifluoromethyl)phenyl]-2-(propan-2-yl)imidazo[1,2-a]pyrazin-3-yl}-1H-indazole] | 10.4 µM |
